Values joined by “and” are separate entries in the source; they are usually repeats but may differ in a detail not shown here. Identical values can stand only once. Inconclusive results and toxic doses are left out. How the source made its calls: active means survival T/C of 150% or more; inactive means T/C below 125% in these data.
Test system: P388 leukemia ip, CD2F1 mice, survival T/C
Test: NCI In Vivo Anticancer Drug Screen. Data for tumor model P388 Leukemia (intraperitoneal) in CD2F1 (CDF1) mice
Details: endpoint: median survival time, higher = longer survival
Procedure, shortened: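 Mice carrying the transplanted tumor received test compound or vehicle. Survival was recorded in each group, and the value is the treated-group measurement divided by that of the vehicle-treated control group.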

[1] = dose: 50.0 mg/kg/injection, schedule: Q01DX009 (ip), vehicle: saline with Tween-80
[2] = dose: 60.0 mg/kg/injection, schedule: Q01DX005 (ip), vehicle: saline with Tween-80
[3] = dose: 120.0 mg/kg/injection, schedule: Q01DX005 (ip), vehicle: saline with Tween-80
[4] = dose: 240.0 mg/kg/injection, schedule: Q01DX005 (ip), vehicle: saline with Tween-80
[5] = dose: 25.0 mg/kg/injection, schedule: Q01DX005 (ip), vehicle: saline with Tween-80
[6] = dose: 50.0 mg/kg/injection, schedule: Q01DX005 (ip), vehicle: saline with Tween-80
[7] = dose: 100.0 mg/kg/injection, schedule: Q01DX005 (ip), vehicle: saline with Tween-80
[8] = dose: 100.0 mg/kg/injection, schedule: Q01DX009 (ip), vehicle: saline with Tween-80
[9] = dose: 200.0 mg/kg/injection, schedule: Q01DX005 (ip), vehicle: saline with Tween-80
[10] = dose: 200.0 mg/kg/injection, schedule: Q01DX009 (ip), vehicle: saline with Tween-80
[11] = dose: 3.75 mg/kg/injection, schedule: Q01DX005 (ip), vehicle: saline with Tween-80
[12] = dose: 7.5 mg/kg/injection, schedule: Q01DX005 (ip), vehicle: saline with Tween-80
[13] = dose: 200.0 mg/kg/injection, schedule: Q01DX001 (ip), vehicle: Klucel (hydroxypropylcellulose) (HPC)

Measured: T/C

CCn1c2ccccc2c2cc(N=Nc3cc[n+]([O-])c4c(O)cccc34)ccc21
inactive: dose: 5.0 mg/kg/injection, schedule: Q01DX009 (ip), vehicle: saline with Tween-80 110 % of control | dose: 10.0 mg/kg/injection, schedule: Q01DX009 (ip), vehicle: saline with Tween-80 102 % of control | dose: 20.0 mg/kg/injection, schedule: Q01DX009 (ip), vehicle: saline with Tween-80 106 % of control | dose: 40.0 mg/kg/injection, schedule: Q01DX009 (ip), vehicle: saline with Tween-80 107 % of control | [1] 86 % of control

C(=NCCSSCCN=Cc1ccccc1)c1ccccc1
inactive: [2] 93 % of control | [3] 93 % of control | [4] 103 % of control

CCC1(c2ccnc3cc(Cl)ccc23)C(=O)NC(=O)NC1=O
inactive: dose: 50.0 mg/kg/injection, schedule: Q01DX009 (ip), vehicle: distilled water + alcohol 100 % of control | dose: 100.0 mg/kg/injection, schedule: Q01DX009 (ip), vehicle: distilled water + alcohol 98 % of control | dose: 200.0 mg/kg/injection, schedule: Q01DX009 (ip), vehicle: distilled water + alcohol 99 % of control

Oc1cc2ccccc2c(-c2c(O)c(O)cc3ccccc23)c1O
inactive: [5] 111 % of control | [6] 113 % of control | dose: 100.0 mg/kg/injection, schedule: Q01DX001 (ip), vehicle: saline with Tween-80 113 % of control and 115 % of control | [7] 112 % of control | dose: 200.0 mg/kg/injection, schedule: Q01DX001 (ip), vehicle: saline with Tween-80 113 % of control and 121 % of control | dose: 600.0 mg/kg/injection, schedule: Q01DX001 (ip), vehicle: saline with Tween-80 124 % of control

CCCCCCC(=O)CC(SCCS)c1ccc(Cl)c(Cl)c1 (centres undefined)
inactive: dose: 50.0 mg/kg/injection, schedule: Q01DX009 (ip), vehicle: saline 102 % of control | dose: 100.0 mg/kg/injection, schedule: Q01DX009 (ip), vehicle: saline 89 % of control

CCCCCCCCCCCC(=O)OCCN1CCN(CCCN2c3ccccc3Sc3ccc(C(F)(F)F)cc32)CC1
inactive: dose: 0.78 mg/kg/injection, schedule: Q01DX009 (ip), vehicle: saline with Tween-80 108 % of control | dose: 1.56 mg/kg/injection, schedule: Q01DX009 (ip), vehicle: saline with Tween-80 104 % of control | dose: 3.12 mg/kg/injection, schedule: Q01DX009 (ip), vehicle: saline with Tween-80 105 % of control and 93 % of control | dose: 6.25 mg/kg/injection, schedule: Q01DX009 (ip), vehicle: saline with Tween-80 107 % of control | dose: 12.5 mg/kg/injection, schedule: Q01DX009 (ip), vehicle: saline with Tween-80 101 % of control and 107 % of control | dose: 25.0 mg/kg/injection, schedule: Q01DX009 (ip), vehicle: saline with Tween-80 106 % of control | [1] 114 % of control | [8] 97 % of control

O=C(Nc1ccc([N+](=O)[O-])cc1)C1C(=O)C(=O)N(c2ccc([N+](=O)[O-])cc2)C1=O (centres undefined)
inactive: dose: 50.0 mg/kg/injection, schedule: Q01DX009 (ip), vehicle: Klucel (hydroxypropylcellulose) (HPC) 107 % of control | dose: 100.0 mg/kg/injection, schedule: Q01DX009 (ip), vehicle: Klucel (hydroxypropylcellulose) (HPC) 100 % of control | dose: 200.0 mg/kg/injection, schedule: Q01DX009 (ip), vehicle: Klucel (hydroxypropylcellulose) (HPC) 104 % of control

O=C1C=CC(=O)N1C(=O)NC(NC(=O)N1C(=O)C=CC1=O)c1ccc2c(c1)OCO2
inactive: [5] 102 % of control | [6] 98 % of control | [7] 95 % of control | [9] 102 % of control

COC(=O)/C=C/C=C(c1ccccc1)c1ccccc1
inactive: [1] 99 % of control | [8] 104 % of control | [10] 106 % of control | dose: 400.0 mg/kg/injection, schedule: Q01DX009 (ip), vehicle: saline with Tween-80 113 % of control

CCOC1=C(C)N2/C(=C/C(=O)OC)[C@@H]3C[C@@H](C)C[C@]2(O3)S1
inactive: [2] 101 % of control | [3] 94 % of control | [4] 104 % of control

O=C(Nc1cccc2c1C(=O)c1cccc(Nc3cccc4c3C(=O)c3cccc(NC(=O)c5ccccc5)c3C4=O)c1C2=O)c1ccccc1
inactive: [6] 101 % of control and 94 % of control | [7] 88 % of control and 92 % of control | [9] 93 % of control

CS(=O)(=O)/C=C/c1ccccc1
inactive: [1] 103 % of control | [8] 90 % of control | [10] 90 % of control

O=C1C=CC(Nc2cc(Cl)ccc2Cl)C1Nc1cc(Cl)ccc1Cl (centres undefined)
inactive: dose: 1.88 mg/kg/injection, schedule: Q01DX005 (ip), vehicle: saline with Tween-80 99 % of control | [11] 97 % of control | [12] 87 % of control and 93 % of control | [4] 86 % of control and 89 % of control

CC(=O)C1C(c2ccccc2)SC(c2ccccc2)CC1(C)O (centres undefined)
inactive: dose: 100.0 mg/kg/injection, schedule: Q04DX002 (ip), vehicle: Klucel (hydroxypropylcellulose) (HPC) 96 % of control | dose: 200.0 mg/kg/injection, schedule: Q04DX002 (ip), vehicle: Klucel (hydroxypropylcellulose) (HPC) 94 % of control | dose: 400.0 mg/kg/injection, schedule: Q04DX002 (ip), vehicle: Klucel (hydroxypropylcellulose) (HPC) 87 % of control

CC(=O)OCN(C)N=Nc1ccc(C#N)cc1
inactive: dose: 60.0 mg/kg/injection, schedule: Q01DX005 (ip), vehicle: Klucel (hydroxypropylcellulose) (HPC) 104 % of control | dose: 120.0 mg/kg/injection, schedule: Q01DX005 (ip), vehicle: Klucel (hydroxypropylcellulose) (HPC) 108 % of control

COc1ccc2[nH]c(-c3ccccc3)cc2c1
inactive: dose: 100.0 mg/kg/injection, schedule: Q04DX003 (ip), vehicle: saline with Tween-80 105 % of control | dose: 200.0 mg/kg/injection, schedule: Q04DX003 (ip), vehicle: saline with Tween-80 110 % of control | dose: 400.0 mg/kg/injection, schedule: Q04DX003 (ip), vehicle: saline with Tween-80 100 % of control

CC(C)(C)C1(C#N)C(=O)N(c2ccc(N3C(=O)C(C#N)(C(C)(C)C)C34c3ccccc3-c3ccccc34)cc2)C12c1ccccc1-c1ccccc12 (centres undefined)
inactive: dose: 100.0 mg/kg/injection, schedule: Q04DX003 (ip), vehicle: Klucel (hydroxypropylcellulose) (HPC) 93 % of control | dose: 200.0 mg/kg/injection, schedule: Q04DX003 (ip), vehicle: Klucel (hydroxypropylcellulose) (HPC) 93 % of control | dose: 400.0 mg/kg/injection, schedule: Q04DX003 (ip), vehicle: Klucel (hydroxypropylcellulose) (HPC) 91 % of control

CCN(CC)CCOC(=O)Nc1cc(C(F)(F)F)ccc1Cl
inactive: [2] 111 % of control | [3] 109 % of control | [4] 90 % of control

Cn1c(N)c(N=Nc2ccccc2Cl)c(=O)n(C)c1=O
inactive: [1] 104 % of control | [8] 99 % of control | [10] 95 % of control

CCC1(CC(=O)O)OCCc2c1[nH]c1c(C)c(Cl)ccc21 (centres undefined)
inactive: dose: 50.0 mg/kg/injection, schedule: Q01DX001 (ip), vehicle: Klucel (hydroxypropylcellulose) (HPC) 101 % of control | dose: 100.0 mg/kg/injection, schedule: Q01DX001 (ip), vehicle: Klucel (hydroxypropylcellulose) (HPC) 101 % of control | [13] 100 % of control

N#CN=[N+]([O-])c1ccccc1
inactive: dose: 6.25 mg/kg/injection, schedule: Q04DX003 (ip), vehicle: Klucel (hydroxypropylcellulose) (HPC) 100 % of control | dose: 12.5 mg/kg/injection, schedule: Q04DX003 (ip), vehicle: Klucel (hydroxypropylcellulose) (HPC) 105 % of control | dose: 25.0 mg/kg/injection, schedule: Q04DX003 (ip), vehicle: Klucel (hydroxypropylcellulose) (HPC) 106 % of control and 96 % of control

COC/C(Br)=C\SC#N (tested in a mixture with another compound)
inactive: [11] 120 % of control | [12] 122 % of control

COC(=O)c1[se]c(=[Se])[se]c1C(=O)OC
inactive: [13] 88 % of control

COc1cc2c(cc1-c1coc3cc(OCC=C(C)C)ccc3c1=O)OCO2
inactive: dose: 9.0 mg/kg/injection, schedule: Q01DX005 (ip), vehicle: Klucel (hydroxypropylcellulose) (HPC) 96 % of control | dose: 18.0 mg/kg/injection, schedule: Q01DX005 (ip), vehicle: Klucel (hydroxypropylcellulose) (HPC) 94 % of control | dose: 36.0 mg/kg/injection, schedule: Q01DX005 (ip), vehicle: Klucel (hydroxypropylcellulose) (HPC) 87 % of control | dose: 72.0 mg/kg/injection, schedule: Q01DX005 (ip), vehicle: Klucel (hydroxypropylcellulose) (HPC) 92 % of control

O=C1OC2(c3ccc(O)cc3Oc3cc(O)ccc32)c2cccc3cccc1c23
inactive: dose: 50.0 mg/kg/injection, schedule: Q01DX005 (ip), vehicle: Klucel (hydroxypropylcellulose) (HPC) 105 % of control | dose: 100.0 mg/kg/injection, schedule: Q01DX005 (ip), vehicle: Klucel (hydroxypropylcellulose) (HPC) 99 % of control | dose: 200.0 mg/kg/injection, schedule: Q01DX005 (ip), vehicle: Klucel (hydroxypropylcellulose) (HPC) 103 % of control
